Test results as given in patent US8952024B2, “Herbicidal pyrimidone derivatives” (E I du Pont de Nemours and Company, priority 2009, dated 2015).

Key:
Assay in all cases: Test D pre-/postemergence plant response
Type in all cases: in vivo
[1] = tested on: Italian ryegrass (Lolium multiflorum)
Method in brief: (§1)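 Visual 0–100 scoring (100 = complete control) versus untreated controls after 14–21 greenhouse days. Compounds, formulated in surfactant-containing non-phytotoxic solvent, were applied preemergence to seeded loam/sand and postemergence to 2–18 cm plants (1–4 leaves).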

[2] = tested on: Surinam grass (Brachiaria decumbens)
Method in brief: as §1

[3] = tested on: barnyardgrass (Echinochloa crus-galli)
Method in brief: as §1

[4] = tested on: black mustard (Brassica nigra)
Method in brief: as §1

[5] = tested on: chickweed (common chickweed, Stellaria media); settings: Postemergence
Method in brief: as §1

[6] = tested on: goosegrass (Eleusine indica)
Method in brief: as §1

[7] = tested on: green foxtail (Setaria viridis)
Method in brief: as §1

[8] = tested on: groundsel (common groundsel, Senecio vulgaris); settings: Postemergence
Method in brief: as §1

[9] = tested on: guineagrass (Panicum maximum)
Method in brief: as §1

[10] = tested on: johnsongrass (Sorghum halepense)
Method in brief: as §1

kochia (Kochia scoparia) = tested on: kochia (Kochia scoparia)
Method in brief: as §1

[11] = tested on: large crabgrass (Digitaria sanguinalis)
Method in brief: as §1

[12] = tested on: morningglory (pitted morningglory, Ipomoea lacunosa)
Method in brief: as §1

[13] = tested on: nutsedge (purple nutsedge, Cyperus rotundus)
Method in brief: as §1

[14] = tested on: purslane (common purslane, Portulaca oleracea)
Method in brief: as §1

[15] = tested on: ragweed (common ragweed, Ambrosia elatior)
Method in brief: as §1

[16] = tested on: signalgrass (broadleaf signalgrass, Brachiaria platyphylla)
Method in brief: as §1

[17] = tested on: spanishneedles (Bidens bipinnata)
Method in brief: as §1

[18] = Postemergence, 31 g ai/ha, scale 0 to 100
[19] = Postemergence, 62 g ai/ha, scale 0 to 100 (0 no effect, 100 complete control)
[20] = Postemergence, 125 g ai/ha, scale 0 to 100 (0 no effect, 100 complete control)
[21] = Postemergence, 16 g ai/ha, scale 0 to 100
[22] = Preemergence, 16 g ai/ha, scale 0 to 100, 0 no effect, 100 complete control
[23] = Preemergence, 31 g ai/ha, scale 0 to 100 (0 no effect, 100 complete control)
[24] = Preemergence, 125 g ai/ha, scale 0 to 100
[25] = Postemergence, 31 g ai/ha, scale 0 to 100 (0 no effect, 100 complete control)
[26] = Preemergence, 62 g ai/ha, scale 0 to 100
[27] = 125 g ai/ha, scale 0 to 100 (0 no effect, 100 complete control)
[28] = Preemergence, rate not given, scale 0 to 100, 0 no effect, 100 complete control

## COCCn1c(-c2cccc(C)c2)ncc(C(=O)C2=C(O)C3CCC(C3)C2=O)c1=O (stereo not shown) [Compound 233]
[1]; [18]
  Plant response rating, Ryegrass, Italian: 0
[1]; [19]
  Plant response rating, Ryegrass, Italian: 5
[1]; [20]
  Plant response rating, Ryegrass, Italian: 5
[1]; [21]
  Plant response rating, Ryegrass, Italian: 0
[1]; [22]
  Plant response rating, Ryegrass, Italian: 0
[1]; [23]
  Plant response rating, Ryegrass, Italian: 0
[1]; [24]
  Plant response rating, Ryegrass, Italian: 20
[2]; [19]
  Plant response rating, Surinam Grass: 50
[2]; [20]
  Plant response rating, Surinam Grass: 60
[2]; [21]
  Plant response rating, Surinam Grass: 30
[2]; [22]
  Plant response rating, Surinam Grass: 0
[2]; [23]
  Plant response rating, Surinam Grass: 5
[2]; [24]
  Plant response rating, Surinam Grass: 100
[3]; [25]
  Plant response rating, Barnyardgrass: 75
[3]; [19]
  Plant response rating, Barnyardgrass: 85
[3]; [20]
  Plant response rating, Barnyardgrass: 85
[3]; [21]
  Plant response rating, Barnyardgrass: 65
[3]; [22]
  Plant response rating, Barnyardgrass: 0
[3]; [23]
  Plant response rating, Barnyardgrass: 0
[3]; [26]
  Plant response rating, Barnyardgrass: 5
[3]; [24]
  Plant response rating, Barnyardgrass: 40
[4]; [25]
  Plant response rating, Black Mustard: 50
[4]; [19]
  Plant response rating, Black Mustard: 50
[4]; [20]
  Plant response rating, Black Mustard: 100
[4]; [21]
  Plant response rating, Black Mustard: 20
[4]; [22]
  Plant response rating, Black Mustard: 0
[4]; [23]
  Plant response rating, Black Mustard: 0
[4]; [26]
  Plant response rating, Black Mustard: 20
[4]; [24]
  Plant response rating, Black Mustard: 65
[5]; 31 g ai/ha, scale 0 to 100
  Plant response rating, Chickweed: 50
[5]; [27]
  Plant response rating, Chickweed: 60
[6]; [18]
  Plant response rating, Goosegrass: 50
[6]; [19]
  Plant response rating, Goosegrass: 60
[6]; [20]
  Plant response rating, Goosegrass: 65
[6]; [21]
  Plant response rating, Goosegrass: 40
[6]; [22]
  Plant response rating, Goosegrass: 70
[6]; [23]
  Plant response rating, Goosegrass: 95
[6]; [26]
  Plant response rating, Goosegrass: 98
[6]; [24]
  Plant response rating, Goosegrass: 100
[7]; [18]
  Plant response rating, Foxtail, Green: 10
[7]; [19]
  Plant response rating, Foxtail, Green: 30
[7]; [20]
  Plant response rating, Foxtail, Green: 35
[7]; [21]
  Plant response rating, Foxtail, Green: 5
[7]; [22]
  Plant response rating, Foxtail, Green: 0
[7]; [23]
  Plant response rating, Foxtail, Green: 0
[7]; [26]
  Plant response rating, Foxtail, Green: 0
[7]; [24]
  Plant response rating, Foxtail, Green: 0
[8]; 31 g ai/ha, scale 0 to 100
  Plant response rating, Groundsel: 50
[8]; 62 g ai/ha, scale 0 to 100 (0 no effect, 100 complete control)
  Plant response rating, Groundsel: 90
[8]; [27]
  Plant response rating, Groundsel: 100
[8]; 16 g ai/ha, scale 0 to 100
  Plant response rating, Groundsel: 30
[9]; [18]
  Plant response rating, Guineagrass: 30
[9]; [19]
  Plant response rating, Guineagrass: 40
[9]; [20]
  Plant response rating, Guineagrass: 50
[9]; [21]
  Plant response rating, Guineagrass: 20
[9]; [22]
  Plant response rating, Guineagrass: 0
[9]; [23]
  Plant response rating, Guineagrass: 0
[9]; [26]
  Plant response rating, Guineagrass: 0
[9]; [24]
  Plant response rating, Guineagrass: 0
[10]; [18]
  Plant response rating, Johnsongrass: 35
[10]; [19]
  Plant response rating, Johnsongrass: 50
[10]; [20]
  Plant response rating, Johnsongrass: 50
[10]; [21]
  Plant response rating, Johnsongrass: 20
[10]; [22]
  Plant response rating, Johnsongrass: 0
[10]; [23]
  Plant response rating, Johnsongrass: 0
[10]; [26]
  Plant response rating, Johnsongrass: 20
[10]; [24]
  Plant response rating, Johnsongrass: 65
Kochia (Kochia scoparia); [18]
  Plant response rating, Kochia: 20
Kochia (Kochia scoparia); [19]
  Plant response rating, Kochia: 30
Kochia (Kochia scoparia); [20]
  Plant response rating, Kochia: 35
Kochia (Kochia scoparia); [21]
  Plant response rating, Kochia: 10
Kochia (Kochia scoparia); [22]
  Plant response rating, Kochia: 0
Kochia (Kochia scoparia); [23]
  Plant response rating, Kochia: 0
Kochia (Kochia scoparia); [26]
  Plant response rating, Kochia: 20
Kochia (Kochia scoparia); [24]
  Plant response rating, Kochia: 80
[11]; [18]
  Plant response rating, Crabgrass, Large: 40
[11]; [19]
  Plant response rating, Crabgrass, Large: 50
[11]; [20]
  Plant response rating, Crabgrass, Large: 60
[11]; [21]
  Plant response rating, Crabgrass, Large: 20
[11]; [22]
  Plant response rating, Crabgrass, Large: 0
[11]; [23]
  Plant response rating, Crabgrass, Large: 5
[11]; [26]
  Plant response rating, Crabgrass, Large: 25
[11]; [24]
  Plant response rating, Crabgrass, Large: 90
[12]; [18]
  Plant response rating, Morningglory: 60
[12]; [19]
  Plant response rating, Morningglory: 70
[12]; [20]
  Plant response rating, Morningglory: 70
[12]; [21]
  Plant response rating, Morningglory: 50
[12]; [22]
  Plant response rating, Morningglory: 0
[12]; [23]
  Plant response rating, Morningglory: 80
[12]; [26]
  Plant response rating, Morningglory: 95
[12]; [24]
  Plant response rating, Morningglory: 95
[13]; [18]
  Plant response rating, Nutsedge, Purple: 0
[13]; [19]
  Plant response rating, Nutsedge, Purple: 0
[13]; [20]
  Plant response rating, Nutsedge, Purple: 0
[13]; [21]
  Plant response rating, Nutsedge, Purple: 0
[13]; [22]
  Plant response rating, Nutsedge, Purple: 0
[13]; [23]
  Plant response rating, Nutsedge, Purple: 0
[13]; [26]
  Plant response rating, Nutsedge, Purple: 0
[13]; [24]
  Plant response rating, Nutsedge, Purple: 5
[14]; [18]
  Plant response rating, Purslane: 30
[14]; [19]
  Plant response rating, Purslane: 30
[14]; [20]
  Plant response rating, Purslane: 40
[14]; [21]
  Plant response rating, Purslane: 30
[14]; [22]
  Plant response rating, Purslane: 0
[14]; [23]
  Plant response rating, Purslane: 0
[14]; [26]
  Plant response rating, Purslane: 100
[14]; [24]
  Plant response rating, Purslane: 100
[15]; [18]
  Plant response rating, Ragweed: 75
[15]; [19]
  Plant response rating, Ragweed: 75
[15]; [20]
  Plant response rating, Ragweed: 98
[15]; [21]
  Plant response rating, Ragweed: 65
[15]; [22]
  Plant response rating, Ragweed: 50
[15]; [23]
  Plant response rating, Ragweed: 70
[15]; [24]
  Plant response rating, Ragweed: 98
[15]; [28]
  Plant response rating, Ragweed: 95
[16]; [18]
  Plant response rating, Signalgrass: 5
[16]; [19]
  Plant response rating, Signalgrass: 25
[16]; [20]
  Plant response rating, Signalgrass: 35
[16]; [21]
  Plant response rating, Signalgrass: 0
[16]; [22]
  Plant response rating, Signalgrass: 0
[16]; [23]
  Plant response rating, Signalgrass: 0
[16]; [24]
  Plant response rating, Signalgrass: 35
[17]; [18]
  Plant response rating, Spanishneedles: 35
[17]; [19]
  Plant response rating, Spanishneedles: 50
[17]; [20]
  Plant response rating, Spanishneedles: 60
[17]; [21]
  Plant response rating, Spanishneedles: 35
[17]; [22]
  Plant response rating, Spanishneedles: 0
[17]; [23]
  Plant response rating, Spanishneedles: 50
[17]; [24]
  Plant response rating, Spanishneedles: 95
[17]; [28]
  Plant response rating, Spanishneedles: 85
